ChEMBL document CHEMBL1201862, “PubChem BioAssay data set” (2004)
Calls of active or inactive are those of the source.

Columns and labels:
[1] = biological target: T1, Alkaline phosphatase, tissue-nonspecific isozyme (Homo sapiens, UniProt P05186); experiment: human TNAP enzyme inhibitors, SAR follow-up, biochemical, luminescent, dose response (AID 1056)
T1 sequence (P05186 whole entry): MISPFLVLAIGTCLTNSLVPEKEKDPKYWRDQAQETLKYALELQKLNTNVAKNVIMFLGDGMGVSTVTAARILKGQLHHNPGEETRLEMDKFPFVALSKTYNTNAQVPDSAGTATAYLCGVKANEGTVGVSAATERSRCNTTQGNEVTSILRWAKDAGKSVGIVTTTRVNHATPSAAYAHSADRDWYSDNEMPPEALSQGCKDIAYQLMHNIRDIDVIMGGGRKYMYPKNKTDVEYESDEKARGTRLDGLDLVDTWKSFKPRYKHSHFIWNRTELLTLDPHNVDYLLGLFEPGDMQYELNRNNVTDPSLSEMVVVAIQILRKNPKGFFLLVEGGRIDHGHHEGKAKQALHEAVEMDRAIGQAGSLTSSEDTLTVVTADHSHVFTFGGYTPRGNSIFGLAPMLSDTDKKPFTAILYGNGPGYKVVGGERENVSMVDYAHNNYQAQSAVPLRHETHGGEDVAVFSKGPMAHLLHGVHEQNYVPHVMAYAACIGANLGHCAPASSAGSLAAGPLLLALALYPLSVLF

[2] = biological target: Alkaline phosphatase, placental type (Homo sapiens, UniProt P05187); experiment: PLAP enzyme inhibitors, confirmation, biochemical, luminescence (AID 1512); assay type: functional
Chain of Alkaline phosphatase, placental type (P05187 whole entry, the tested form may be a part): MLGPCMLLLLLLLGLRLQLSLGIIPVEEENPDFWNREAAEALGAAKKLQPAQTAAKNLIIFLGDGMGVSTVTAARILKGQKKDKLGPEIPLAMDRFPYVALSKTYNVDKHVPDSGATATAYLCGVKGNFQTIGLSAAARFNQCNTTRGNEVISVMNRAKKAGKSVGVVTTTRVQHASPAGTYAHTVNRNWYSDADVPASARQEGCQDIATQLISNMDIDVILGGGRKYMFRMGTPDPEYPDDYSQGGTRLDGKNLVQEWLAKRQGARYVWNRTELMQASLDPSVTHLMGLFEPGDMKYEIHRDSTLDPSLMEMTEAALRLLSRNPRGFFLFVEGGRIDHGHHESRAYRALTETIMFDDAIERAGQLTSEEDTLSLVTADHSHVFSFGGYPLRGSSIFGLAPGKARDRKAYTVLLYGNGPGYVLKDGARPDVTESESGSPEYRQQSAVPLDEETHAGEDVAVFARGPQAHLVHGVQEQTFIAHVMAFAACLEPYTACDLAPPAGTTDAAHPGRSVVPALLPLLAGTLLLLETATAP

[3] = biological target: T2, Type-1 angiotensin II receptor (Homo sapiens, UniProt P30556); experiment: AT1 receptor agonists, dose response, selectivity assay for APJ receptor agonist project, cell-based, uHTS hits (AID 488865); assay type: functional;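 further: beta-arrestin recruitment to AT1 measured by enzyme fragment complementation luminescence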
T2 sequence (P30556 whole entry): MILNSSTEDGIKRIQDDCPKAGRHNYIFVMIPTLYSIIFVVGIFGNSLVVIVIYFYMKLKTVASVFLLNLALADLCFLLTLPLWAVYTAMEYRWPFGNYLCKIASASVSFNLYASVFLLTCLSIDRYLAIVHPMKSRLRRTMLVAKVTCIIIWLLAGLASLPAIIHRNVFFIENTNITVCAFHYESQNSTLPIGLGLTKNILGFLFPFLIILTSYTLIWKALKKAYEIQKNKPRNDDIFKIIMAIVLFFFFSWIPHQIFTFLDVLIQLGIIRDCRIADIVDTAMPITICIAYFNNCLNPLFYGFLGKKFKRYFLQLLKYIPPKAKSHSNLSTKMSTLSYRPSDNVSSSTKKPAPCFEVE

[4] = tested on: HEK293; experiment: cells; assay type: functional, cell-based; details: Homo sapiens
[5] = biological target: Nucleotide-binding oligomerization domain-containing protein 2 (Homo sapiens, UniProt Q9HC29); experiment: NOD2 signaling inhibitors, cell-based, luminescence, uHTS, HEK293 (AID 1566); assay type: functional
[6] = biological target: T3, Heat shock factor protein 1 (Mus musculus, UniProt P38532); experiment: inhibition of MG132-induced HSE-luciferase signal, confirmation, cell-based, NIH3T3, luminescence, dose retest (AID 2382); assay type: functional;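 further: NIH3T3 fibroblasts with HSF1-driven luciferase reporter stressed by proteasome inhibitor MG132; luminescence from HSF1-driven luciferase expression after 8 hours of MG132 stress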
T3 sequence (P38532 whole entry): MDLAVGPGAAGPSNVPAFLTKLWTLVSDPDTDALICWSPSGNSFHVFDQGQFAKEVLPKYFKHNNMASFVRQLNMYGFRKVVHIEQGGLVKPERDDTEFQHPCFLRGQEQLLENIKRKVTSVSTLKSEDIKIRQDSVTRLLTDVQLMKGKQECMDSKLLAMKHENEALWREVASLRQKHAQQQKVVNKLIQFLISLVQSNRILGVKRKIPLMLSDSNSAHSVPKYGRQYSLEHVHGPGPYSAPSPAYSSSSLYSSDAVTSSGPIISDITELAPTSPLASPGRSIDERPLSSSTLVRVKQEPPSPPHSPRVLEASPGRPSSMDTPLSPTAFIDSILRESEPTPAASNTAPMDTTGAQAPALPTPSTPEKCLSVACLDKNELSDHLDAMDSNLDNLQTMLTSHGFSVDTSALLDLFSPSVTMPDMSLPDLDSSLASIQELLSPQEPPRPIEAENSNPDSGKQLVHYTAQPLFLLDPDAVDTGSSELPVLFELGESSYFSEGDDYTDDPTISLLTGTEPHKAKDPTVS

[7] = tested on: HEK293; experiment: cells; assay type: functional, cell-based; details: Homo sapiens; remark: listed apart in the source
[8] = tested on: HEK293; experiment: NOD2 signaling inhibitors in MDP-stimulated cells, cell-based, uHTS, luminescence (AID 2001); assay type: functional; details: Homo sapiens
[9] = tested on: HEK293; experiment: NOD1 signaling inhibitors, primary screen, cell-based, luminescence, uHTS (AID 1578); assay type: functional; details: Homo sapiens
[10] = tested on: HEK293; experiment: cells; assay type: functional, cell-based; details: Homo sapiens; remark: listed apart in the source
[11] = biological target: G-protein coupled receptor 35 (Homo sapiens, UniProt Q9HC97); experiment: SAR analysis of Antagonists of the GPR35 Receptor using an Image-Based Assay - Set 5. [Related pubchem assays (depositor defined):AID2058, AID2079]; assay type: functional
[12] = biological target: G-protein coupled receptor 55 (Homo sapiens, UniProt Q9Y2T6); experiment: SAR Analysis of Selective Antagonists of GPR55 using an Image-Based Assay - Set 3. [Related pubchem assays (depositor defined):AID2058, AID2079]; assay type: functional
Chain of G-protein coupled receptor 55 (Q9Y2T6 whole entry): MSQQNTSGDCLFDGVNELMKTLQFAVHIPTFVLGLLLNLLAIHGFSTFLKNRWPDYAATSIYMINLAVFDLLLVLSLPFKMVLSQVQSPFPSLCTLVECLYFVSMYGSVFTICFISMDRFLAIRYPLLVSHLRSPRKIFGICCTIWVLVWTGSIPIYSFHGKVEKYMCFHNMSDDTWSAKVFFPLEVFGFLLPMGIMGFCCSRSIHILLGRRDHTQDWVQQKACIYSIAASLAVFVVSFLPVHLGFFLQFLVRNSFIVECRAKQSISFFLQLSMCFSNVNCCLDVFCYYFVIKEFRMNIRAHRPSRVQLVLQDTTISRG

[13] = biological target: Voltage-dependent T-type calcium channel subunit alpha-1H (Homo sapiens, UniProt O95180); experiment: Cav3.2 T-type channel inhibitors, cell-based, synthetic library set 1, calcium flux (AID 493022); assay type: functional
Chain of Voltage-dependent T-type calcium channel subunit alpha-1H (O95180 whole entry): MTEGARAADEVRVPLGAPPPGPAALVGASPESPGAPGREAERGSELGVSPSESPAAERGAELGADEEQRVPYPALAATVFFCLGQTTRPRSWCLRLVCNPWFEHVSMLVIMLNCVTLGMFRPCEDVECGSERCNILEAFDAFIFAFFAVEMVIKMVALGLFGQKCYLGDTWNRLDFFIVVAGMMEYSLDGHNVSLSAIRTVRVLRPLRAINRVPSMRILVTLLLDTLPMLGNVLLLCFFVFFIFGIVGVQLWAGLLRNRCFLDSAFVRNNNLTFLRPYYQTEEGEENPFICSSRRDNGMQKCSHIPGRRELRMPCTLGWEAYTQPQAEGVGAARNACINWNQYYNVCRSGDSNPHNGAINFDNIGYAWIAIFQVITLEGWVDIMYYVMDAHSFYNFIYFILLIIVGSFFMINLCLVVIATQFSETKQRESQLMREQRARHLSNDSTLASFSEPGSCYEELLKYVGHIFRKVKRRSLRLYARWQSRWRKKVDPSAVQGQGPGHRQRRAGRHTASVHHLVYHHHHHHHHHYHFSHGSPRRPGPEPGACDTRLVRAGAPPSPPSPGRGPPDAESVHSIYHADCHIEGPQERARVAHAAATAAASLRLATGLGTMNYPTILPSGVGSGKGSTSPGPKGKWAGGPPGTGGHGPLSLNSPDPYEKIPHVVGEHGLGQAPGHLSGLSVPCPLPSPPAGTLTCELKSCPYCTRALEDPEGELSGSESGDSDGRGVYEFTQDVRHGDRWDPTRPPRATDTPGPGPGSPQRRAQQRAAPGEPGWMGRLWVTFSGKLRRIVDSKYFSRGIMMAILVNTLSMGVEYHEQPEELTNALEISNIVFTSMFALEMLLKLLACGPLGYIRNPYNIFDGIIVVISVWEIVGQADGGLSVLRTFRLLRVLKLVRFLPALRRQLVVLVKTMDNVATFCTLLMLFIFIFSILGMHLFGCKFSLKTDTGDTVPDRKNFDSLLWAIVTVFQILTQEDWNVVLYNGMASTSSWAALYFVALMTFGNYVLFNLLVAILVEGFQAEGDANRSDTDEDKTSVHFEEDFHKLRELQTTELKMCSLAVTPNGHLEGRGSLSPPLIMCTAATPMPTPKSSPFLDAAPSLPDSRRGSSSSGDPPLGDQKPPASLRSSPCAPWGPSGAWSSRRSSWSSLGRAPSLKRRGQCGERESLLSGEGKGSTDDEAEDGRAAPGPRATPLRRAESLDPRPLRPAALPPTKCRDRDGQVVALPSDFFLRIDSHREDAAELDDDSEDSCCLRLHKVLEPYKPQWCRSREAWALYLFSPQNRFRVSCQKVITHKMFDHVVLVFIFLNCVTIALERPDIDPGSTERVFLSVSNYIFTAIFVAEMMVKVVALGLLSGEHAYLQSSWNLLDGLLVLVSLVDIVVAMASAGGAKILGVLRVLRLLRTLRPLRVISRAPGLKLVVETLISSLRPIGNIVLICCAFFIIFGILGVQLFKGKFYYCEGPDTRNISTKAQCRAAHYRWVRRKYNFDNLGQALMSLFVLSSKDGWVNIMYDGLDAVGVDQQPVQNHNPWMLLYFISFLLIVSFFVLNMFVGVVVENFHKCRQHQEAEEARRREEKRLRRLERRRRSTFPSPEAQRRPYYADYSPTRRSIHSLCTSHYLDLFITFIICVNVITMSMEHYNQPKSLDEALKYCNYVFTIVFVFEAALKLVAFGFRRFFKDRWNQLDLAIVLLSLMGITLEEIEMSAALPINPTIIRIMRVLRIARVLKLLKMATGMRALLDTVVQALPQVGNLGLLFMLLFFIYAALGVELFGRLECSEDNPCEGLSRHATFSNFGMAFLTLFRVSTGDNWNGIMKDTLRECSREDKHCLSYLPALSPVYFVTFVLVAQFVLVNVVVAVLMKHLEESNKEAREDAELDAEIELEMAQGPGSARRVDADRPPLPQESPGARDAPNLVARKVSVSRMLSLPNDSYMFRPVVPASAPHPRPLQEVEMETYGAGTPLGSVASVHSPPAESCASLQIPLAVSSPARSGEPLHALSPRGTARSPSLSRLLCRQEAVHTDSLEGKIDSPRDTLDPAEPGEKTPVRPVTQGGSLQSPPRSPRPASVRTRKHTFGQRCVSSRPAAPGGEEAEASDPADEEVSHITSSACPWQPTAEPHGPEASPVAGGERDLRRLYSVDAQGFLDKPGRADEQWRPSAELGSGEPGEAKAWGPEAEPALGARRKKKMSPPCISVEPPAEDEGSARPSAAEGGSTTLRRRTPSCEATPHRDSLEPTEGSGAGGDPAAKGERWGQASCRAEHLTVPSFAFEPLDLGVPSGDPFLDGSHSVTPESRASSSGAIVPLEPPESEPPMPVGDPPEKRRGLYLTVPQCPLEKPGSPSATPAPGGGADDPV

[14] = biological target: Beta-galactosidase (Escherichia coli, UniProt Q8VNN2); experiment: beta-galactosidase enzyme inhibitors and activators, dose response, artefact control for CCR6 antagonist project, biochemical, E. coli enzyme, set 3 (AID 504712); assay type: functional
Chain of Beta-galactosidase (Q8VNN2 whole entry): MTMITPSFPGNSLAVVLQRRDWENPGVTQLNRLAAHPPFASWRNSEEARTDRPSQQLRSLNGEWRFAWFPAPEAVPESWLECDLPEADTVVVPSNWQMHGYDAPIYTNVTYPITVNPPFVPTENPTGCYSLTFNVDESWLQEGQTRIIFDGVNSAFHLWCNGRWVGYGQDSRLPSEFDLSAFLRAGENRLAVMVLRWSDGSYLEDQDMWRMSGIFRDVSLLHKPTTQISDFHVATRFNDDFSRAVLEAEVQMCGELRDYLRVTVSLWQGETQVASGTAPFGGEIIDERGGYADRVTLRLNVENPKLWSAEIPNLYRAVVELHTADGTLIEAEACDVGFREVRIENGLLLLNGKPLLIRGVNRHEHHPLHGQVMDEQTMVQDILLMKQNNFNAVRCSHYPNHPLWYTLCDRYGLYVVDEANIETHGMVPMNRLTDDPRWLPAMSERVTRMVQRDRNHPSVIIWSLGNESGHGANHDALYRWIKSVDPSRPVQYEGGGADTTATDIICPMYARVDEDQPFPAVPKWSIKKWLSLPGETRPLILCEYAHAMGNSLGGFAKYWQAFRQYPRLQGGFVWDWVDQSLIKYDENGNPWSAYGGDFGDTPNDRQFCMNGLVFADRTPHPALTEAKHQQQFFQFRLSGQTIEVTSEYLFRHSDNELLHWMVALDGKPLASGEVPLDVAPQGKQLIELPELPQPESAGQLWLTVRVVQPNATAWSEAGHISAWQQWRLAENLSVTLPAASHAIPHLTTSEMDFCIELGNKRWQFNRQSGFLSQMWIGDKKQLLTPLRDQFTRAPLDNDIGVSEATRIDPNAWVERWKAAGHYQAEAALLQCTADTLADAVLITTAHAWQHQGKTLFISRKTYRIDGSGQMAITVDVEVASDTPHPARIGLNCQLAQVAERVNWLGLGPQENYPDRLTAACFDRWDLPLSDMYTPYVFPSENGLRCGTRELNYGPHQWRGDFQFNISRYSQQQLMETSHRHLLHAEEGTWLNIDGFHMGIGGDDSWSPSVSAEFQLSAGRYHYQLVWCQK

[15] = biological target: T4, Hexokinase HKDC1 (Homo sapiens, UniProt Q2TB90); experiment: HKDC1 hexokinase inhibitors, dose response, biochemical, W721R variant (AID 504729); assay type: functional
T4 sequence (Q2TB90 whole entry): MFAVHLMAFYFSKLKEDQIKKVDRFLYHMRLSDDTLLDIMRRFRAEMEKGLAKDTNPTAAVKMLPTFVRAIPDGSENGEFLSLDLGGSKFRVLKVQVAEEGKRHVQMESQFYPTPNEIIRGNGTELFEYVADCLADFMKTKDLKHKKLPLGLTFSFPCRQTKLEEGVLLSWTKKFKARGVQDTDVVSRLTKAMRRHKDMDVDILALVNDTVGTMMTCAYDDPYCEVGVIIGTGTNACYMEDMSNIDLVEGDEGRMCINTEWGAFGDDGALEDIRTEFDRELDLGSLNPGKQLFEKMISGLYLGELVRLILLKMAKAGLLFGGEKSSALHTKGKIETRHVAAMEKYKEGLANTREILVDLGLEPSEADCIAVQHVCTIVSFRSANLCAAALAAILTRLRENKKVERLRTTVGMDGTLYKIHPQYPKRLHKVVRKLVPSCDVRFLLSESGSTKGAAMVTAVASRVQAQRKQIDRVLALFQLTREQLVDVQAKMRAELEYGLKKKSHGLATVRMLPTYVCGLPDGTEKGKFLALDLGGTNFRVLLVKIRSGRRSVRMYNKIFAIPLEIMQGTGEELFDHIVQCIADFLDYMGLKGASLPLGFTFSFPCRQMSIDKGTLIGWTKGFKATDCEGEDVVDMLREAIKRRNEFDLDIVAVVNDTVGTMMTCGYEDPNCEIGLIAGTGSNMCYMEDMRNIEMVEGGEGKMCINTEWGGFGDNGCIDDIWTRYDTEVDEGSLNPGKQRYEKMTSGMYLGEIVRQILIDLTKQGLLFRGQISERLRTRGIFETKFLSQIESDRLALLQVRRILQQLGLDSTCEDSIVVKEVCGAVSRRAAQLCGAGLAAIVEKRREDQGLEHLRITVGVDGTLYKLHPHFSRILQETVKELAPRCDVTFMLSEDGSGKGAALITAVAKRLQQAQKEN

[16] = biological target: T5, Hepatocyte nuclear factor 4-alpha (Homo sapiens, UniProt P41235); assay type: functional, cell-based;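 further: biochemical luminescence-based dose-response counterscreen measuring inhibition of HNF4 dimerization, run alongside a screen for blockers of ABHD5–perilipin-5 interaction; split luciferase complementation of HNF4 fusion proteins in cell lysate measuring dimerization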
T5 sequence (P41235 whole entry): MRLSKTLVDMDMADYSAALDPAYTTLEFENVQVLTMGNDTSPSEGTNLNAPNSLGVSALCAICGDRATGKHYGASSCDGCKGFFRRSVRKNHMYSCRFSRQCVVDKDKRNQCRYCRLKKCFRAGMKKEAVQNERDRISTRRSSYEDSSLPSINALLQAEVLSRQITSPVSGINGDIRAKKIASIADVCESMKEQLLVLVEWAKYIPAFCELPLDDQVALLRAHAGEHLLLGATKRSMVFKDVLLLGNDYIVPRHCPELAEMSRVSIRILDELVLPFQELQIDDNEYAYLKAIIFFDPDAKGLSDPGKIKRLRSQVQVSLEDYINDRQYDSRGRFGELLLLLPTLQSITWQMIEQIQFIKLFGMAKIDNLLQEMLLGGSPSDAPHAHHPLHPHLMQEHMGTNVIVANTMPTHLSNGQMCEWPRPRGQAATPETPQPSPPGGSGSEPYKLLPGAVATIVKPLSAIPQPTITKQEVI

[17] = biological target: Genome polyprotein (dengue virus type 2, UniProt P29990); experiment: Dengue-2 NS5 methyltransferase inhibitors, primary screen, biochemical, confirmation dose response (AID 588689); assay type: functional
[18] = biological target: Glucose-6-phosphate 1-dehydrogenase (Homo sapiens, UniProt P11413); experiment: human G6PD enzyme inhibitors, dose response, selectivity assay for P. falciparum G6PD inhibitor project, biochemical, fluorescence (AID 504792); assay type: functional
[19] = biological target: Sphingosine 1-phosphate receptor 4 (Homo sapiens, UniProt O95977); experiment: S1P4 receptor agonists, human, late-stage follow-up, cell-based, fluorescence, synthesized compounds (AID 463107); assay type: functional
Chain of Sphingosine 1-phosphate receptor 4 (O95977 whole entry): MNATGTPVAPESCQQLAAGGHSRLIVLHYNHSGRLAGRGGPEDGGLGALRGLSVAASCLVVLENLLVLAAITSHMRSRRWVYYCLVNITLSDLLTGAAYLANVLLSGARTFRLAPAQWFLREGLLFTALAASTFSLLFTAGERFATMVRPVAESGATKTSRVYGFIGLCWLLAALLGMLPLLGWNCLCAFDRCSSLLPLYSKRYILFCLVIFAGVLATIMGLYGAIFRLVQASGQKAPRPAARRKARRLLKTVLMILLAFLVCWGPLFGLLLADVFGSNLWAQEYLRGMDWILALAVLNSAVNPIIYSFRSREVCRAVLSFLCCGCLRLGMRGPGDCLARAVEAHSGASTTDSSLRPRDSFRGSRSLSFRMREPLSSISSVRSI

[20] = biological target: T6, Dual specificity protein phosphatase 3 (Homo sapiens, UniProt P51452); experiment: MOA VHR1 Fluorescent secondary assay for identification of redox-state modulating compounds. [Related pubchem assays (depositor defined):AID1654, AID1661, AID1878, AID1957]
T6 sequence (P51452 whole entry): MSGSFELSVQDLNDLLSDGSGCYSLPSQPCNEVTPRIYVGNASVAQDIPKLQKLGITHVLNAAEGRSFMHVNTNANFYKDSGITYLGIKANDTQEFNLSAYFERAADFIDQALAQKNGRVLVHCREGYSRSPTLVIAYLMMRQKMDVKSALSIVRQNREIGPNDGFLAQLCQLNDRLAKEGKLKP

[21] = biological target: Glyceraldehyde-3-phosphate dehydrogenase (Homo sapiens, UniProt P04406)
[22] = biological target: T7, Dual specificity protein phosphatase 6 (Rattus norvegicus, UniProt Q64346); assay type: functional
T7 sequence (Q64346 whole entry): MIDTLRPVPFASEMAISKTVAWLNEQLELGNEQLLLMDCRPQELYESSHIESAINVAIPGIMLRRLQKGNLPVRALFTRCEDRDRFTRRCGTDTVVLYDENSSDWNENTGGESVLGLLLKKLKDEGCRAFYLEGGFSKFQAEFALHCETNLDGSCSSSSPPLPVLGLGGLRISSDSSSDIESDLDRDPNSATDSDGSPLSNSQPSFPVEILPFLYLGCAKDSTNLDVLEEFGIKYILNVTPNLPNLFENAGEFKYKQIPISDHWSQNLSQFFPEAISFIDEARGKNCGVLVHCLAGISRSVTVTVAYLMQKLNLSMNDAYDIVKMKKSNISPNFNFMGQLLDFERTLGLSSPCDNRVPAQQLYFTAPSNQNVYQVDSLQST

[23] = biological target: T8, Tyrosine-protein phosphatase non-receptor type 7 (Homo sapiens, UniProt P35236); experiment: redox-dependent HePTP inhibition, mechanism study, biochemical, fluorescence (AID 2068); assay type: functional
T8 sequence (P35236 whole entry): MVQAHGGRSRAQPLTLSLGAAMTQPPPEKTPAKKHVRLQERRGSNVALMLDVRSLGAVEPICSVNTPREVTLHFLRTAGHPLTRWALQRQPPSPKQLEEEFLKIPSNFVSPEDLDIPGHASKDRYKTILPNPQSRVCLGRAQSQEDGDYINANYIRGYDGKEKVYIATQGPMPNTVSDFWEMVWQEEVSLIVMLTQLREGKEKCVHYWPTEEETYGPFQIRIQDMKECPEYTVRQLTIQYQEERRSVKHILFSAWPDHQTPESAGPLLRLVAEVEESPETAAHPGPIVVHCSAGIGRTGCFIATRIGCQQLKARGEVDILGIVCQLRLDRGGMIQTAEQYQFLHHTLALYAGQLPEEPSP

[24] = biological target: T7, Dual specificity protein phosphatase 6
[25] = biological target: T8, Tyrosine-protein phosphatase non-receptor type 7; assay type: functional
[26] = biological target: T6, Dual specificity protein phosphatase 3; experiment: SAR VHR1 Fluorescent Assay for In Vitro dose response studies. [Related pubchem assays (depositor defined):AID1654, AID1661, AID1878, AID1992, AID2004, AID2070, AID2085]; assay type: functional

## O=C(NC1(C(F)(F)F)Oc2ccccc2O1)Sc1ccccc1
[1]
  IC50: > 100 µM (inactive)
[2]
  IC50: 92.3 µM (active)

## CSc1cccc(NC(=S)NC(=O)CCc2ccccc2)c1
[3]
  EC50: > 100 µM (inactive)

## Cc1ccc(C(=O)Nc2sc(C)c(-c3ccccc3)c2C(N)=O)cc1[N+](=O)[O-]
[4]
  IC50: > 20 µM (inactive)
[5]
  EC50: < 0.31 µM (inactive)
[6]
  EC50: < 0.16 µM (active)
[7]
  IC50: > 20 µM (inactive)
[8]
  IC50: > 20 µM (inactive)
[9]
  EC50: > 20 µM (inactive)
[10]
  IC50: < 0.312 µM (active)

## COC(=O)c1cnn(-c2ccc(Cl)cc2)c1/C=N/NC(N)=S
[11]
  IC50: 4.6 µM (active)
[12]
  IC50: > 32 µM (inactive)

## Cc1ccc(-c2nnc(NC(=O)COc3ccccc3Cl)o2)cc1C
[13]
  EC50: 1.3 µM (active)

## CN(C)c1ccc(Cc2cc3c(O)ccc(O)c3cc(Cc3ccc(N(C)C)cc3)c2=O)cc1
[14]
  IC50: > 66.6 µM (inactive)
[15]
  IC50: 10.9 µM (active)
[16]
  IC50: 4.6 µM (active)
[17]
  IC50: 44.1 µM (active)
[18]
  IC50: 56.7 µM (inactive)

## Cc1ccc(OCCCOc2ccc(Cl)cc2Cl)c([N+](=O)[O-])n1
[19]
  EC50: > 50 µM (inactive)

## O=c1/c(=C/c2cccc(Br)c2)sc2nc3cc(Br)cnc3n12
[20]
  IC50: > 100 µM (inactive)
[21]
  IC50: > 100 µM (not active)
[22]
  IC50: > 100 µM (inactive)
[23]
  IC50: 98.3 µM (active)
[24]
  IC50: > 100 µM (inactive)
[25]
  IC50: > 100 µM (not active)
[26]
  IC50: > 100 µM (inactive)
